pIC50: −log10 of the molar value. Each block holds one molecule with its values, some of them ahead of it. Active and inactive are the calls of the source. The rule behind the calls is not given here.
How the values were obtained:
HEL [1] = test: Induction of cell death in HEL cells at 10 uM after 48 hrs by microscopic analysis; format: functional, cell-based; details: Homo sapiens
HEL [2] = test: Induction of morphological changes in HEL cells assessed as cell shrinkage at 5 uM after 48 hrs by microscopic analysis; format: functional, cell-based; details: Homo sapiens
HeLa = test: Antiproliferative activity against human HeLa cells after 72 hrs by MTT assay; format: functional, cell-based
HEL [3] = test: Induction of apoptosis in HEL cells assessed as early apoptotic cells at 10 uM after 24 hrs by Annexin V-FITC/propidium iodide staining based flow cytometry (reference value: 9.9%); format: functional, Homo sapiens
HEL [4] = test: Cell cycle arrest in HEL cells assessed as accumulation at G2/M phase at 5 uM after 48 hrs propidium iodide staining based flow cytometry (reference value: 14.33%); format: functional, Homo sapiens
HEL [5] = test: Induction of apoptosis in HEL cells assessed as viable cells at 10 uM after 48 hrs by Annexin V-FITC/propidium iodide staining based flow cytometry (reference value: 88.3%); format: functional; details: Homo sapiens, read-out: Activity
HEL [6] = test: Induction of apoptosis in HEL cells assessed as early apoptotic cells at 5 uM after 48 hrs by Annexin V-FITC/propidium iodide staining based flow cytometry (reference value: 8%); format: functional, Homo sapiens
HEL [7] = test: Cell cycle arrest in HEL cells assessed as accumulation at G0/G1 phase at 5 uM after 48 hrs propidium iodide staining based flow cytometry (reference value: 37.72%); format: functional, Homo sapiens
HEL [8] = test: Induction of apoptosis in HEL cells assessed as late apoptotic cells at 10 uM after 48 hrs by Annexin V-FITC/propidium iodide staining based flow cytometry (reference value: 3.3%); format: functional, Homo sapiens
HEL [9] = test: Induction of apoptosis in HEL cells assessed as viable cells at 2.5 uM after 24 hrs by Annexin V-FITC/propidium iodide staining based flow cytometry (reference value: 88.6%); format: functional; details: Homo sapiens, read-out: Activity
HEL [10] = test: Up regulation of cleaved caspase3 expression in HEL cells at 2.5 to 10 uM after 24 hrs by Western blot analysis; format: functional, cell-based; details: Homo sapiens
HEL [11] = test: Induction of apoptosis in HEL cells assessed as late apoptotic cells at 5 uM after 48 hrs by Annexin V-FITC/propidium iodide staining based flow cytometry (reference value: 3.3%); format: functional, Homo sapiens
HEL [12] = test: Induction of apoptosis in HEL cells assessed as necrotic cells at 5 uM after 48 hrs by Annexin V-FITC/propidium iodide staining based flow cytometry (reference value: 0.5%); format: functional, Homo sapiens
HEL [13] = test: Cell cycle arrest in HEL cells assessed as accumulation at S phase at 5 uM after 48 hrs propidium iodide staining based flow cytometry (reference value: 45.65%); format: functional, Homo sapiens
HEL [14] = test: Induction of apoptosis in HEL cells assessed as necrotic cells at 10 uM after 48 hrs by Annexin V-FITC/propidium iodide staining based flow cytometry (reference value: 0.5%); format: functional, Homo sapiens
HEL [15] = test: Induction of apoptosis in HEL cells assessed as necrotic cells at 5 uM after 24 hrs by Annexin V-FITC/propidium iodide staining based flow cytometry (reference value: 0.2%); format: functional, Homo sapiens
HEL [16] = test: Down regulation of cyclin D1 expression in HEL cells at 2.5 to 10 uM after 24 hrs by Western blot analysis; format: functional, cell-based; details: Homo sapiens
MCF7 = test: Antiproliferative activity against human MCF7 cells after 72 hrs by MTT assay; format: functional, cell-based; details: MCF7, 72 h
HEL [17] = test: Antiproliferative activity against HEL cells after 72 hrs by MTT assay; format: functional, cell-based; details: Homo sapiens
HEL [18] = test: Induction of apoptosis in HEL cells assessed as late apoptotic cells at 2.5 uM after 48 hrs by Annexin V-FITC/propidium iodide staining based flow cytometry (reference value: 3.3%); format: functional, Homo sapiens
HEL [19] = test: Induction of apoptosis in HEL cells assessed as late apoptotic cells at 5 uM after 24 hrs by Annexin V-FITC/propidium iodide staining based flow cytometry (reference value: 1.2%); format: functional, Homo sapiens
HEL [20] = test: Induction of morphological changes in HEL cells assessed as cell fragmentation at 5 uM after 48 hrs by microscopic analysis; format: functional, cell-based; details: Homo sapiens
HEL [21] = test: Induction of apoptosis in HEL cells assessed as viable cells at 2.5 uM after 48 hrs by Annexin V-FITC/propidium iodide staining based flow cytometry (reference value: 88.3%); format: functional; details: Homo sapiens, read-out: Activity
HEL [22] = test: Induction of apoptosis in HEL cells assessed as early apoptotic cells at 10 uM after 48 hrs by Annexin V-FITC/propidium iodide staining based flow cytometry (reference value: 8%); format: functional, Homo sapiens
A549 = test: Antiproliferative activity against human A549 cells after 72 hrs by MTT assay; format: functional, cell-based; details: A549, 72 h
HEL [23] = test: Down regulation of Bcl2 expression in HEL cells after 24 hrs by Western blot analysis; format: functional, cell-based; details: Homo sapiens
HEL [24] = test: Induction of apoptosis in HEL cells assessed as viable cells at 10 uM after 24 hrs by Annexin V-FITC/propidium iodide staining based flow cytometry (reference value: 88.6%); format: functional; details: Homo sapiens, read-out: Activity
HEL [25] = test: Induction of apoptosis in HEL cells assessed as necrotic cells at 10 uM after 24 hrs by Annexin V-FITC/propidium iodide staining based flow cytometry (reference value: 0.2%); format: functional, Homo sapiens
HEL [26] = test: Induction of apoptosis in HEL cells assessed as early apoptotic cells at 2.5 uM after 24 hrs by Annexin V-FITC/propidium iodide staining based flow cytometry (reference value: 9.9%); format: functional, Homo sapiens
HEL [27] = test: Induction of apoptosis in HEL cells assessed as viable cells at 5 uM after 24 hrs by Annexin V-FITC/propidium iodide staining based flow cytometry (reference value: 88.6%); format: functional; details: Homo sapiens, read-out: Activity
HEL [28] = test: Up regulation of Bax expression in HEL cells after 24 hrs by Western blot analysis; format: functional, cell-based; details: Homo sapiens
HEL [29] = test: Induction of apoptosis in HEL cells assessed as late apoptotic cells at 2.5 uM after 24 hrs by Annexin V-FITC/propidium iodide staining based flow cytometry (reference value: 1.2%); format: functional, Homo sapiens
HEL [30] = test: Induction of morphological changes in HEL cells at 2.5 uM after 48 hrs by microscopic analysis; format: functional, cell-based; details: Homo sapiens
HEL [31] = test: Induction of apoptosis in HEL cells assessed as viable cells at 5 uM after 48 hrs by Annexin V-FITC/propidium iodide staining based flow cytometry (reference value: 88.3%); format: functional; details: Homo sapiens, read-out: Activity
HEL [32] = test: Induction of apoptosis in HEL cells assessed as necrotic cells at 2.5 uM after 48 hrs by Annexin V-FITC/propidium iodide staining based flow cytometry (reference value: 0.5%); format: functional, Homo sapiens
K562 = test: Antiproliferative activity against human K562 cells after 72 hrs by MTT assay; format: functional, cell-based; details: K562, 72 h
HEL [33] = test: Down regulation of full-length PARP1 expression in HEL cells at 2.5 to 10 uM after 24 hrs by Western blot analysis; format: functional, cell-based; details: Homo sapiens
HEL [34] = test: Induction of apoptosis in HEL cells assessed as early apoptotic cells at 5 uM after 24 hrs by Annexin V-FITC/propidium iodide staining based flow cytometry (reference value: 9.9%); format: functional, Homo sapiens
HEL [35] = test: Induction of apoptosis in HEL cells assessed as early apoptotic cells at 2.5 uM after 48 hrs by Annexin V-FITC/propidium iodide staining based flow cytometry (reference value: 8%); format: functional, Homo sapiens
HEL [36] = test: Induction of apoptosis in HEL cells assessed as necrotic cells at 2.5 uM after 24 hrs by Annexin V-FITC/propidium iodide staining based flow cytometry (reference value: 0.2%); format: functional, Homo sapiens
HEL [37] = test: Induction of apoptosis in HEL cells assessed as late apoptotic cells at 10 uM after 24 hrs by Annexin V-FITC/propidium iodide staining based flow cytometry (reference value: 1.2%); format: functional, Homo sapiens

Compound: CC(C)=CC[C@H]1C[C@]23C[C@@H](CC=C(C)C)C(C)(C)[C@H]4CCC(C)(C)O[C@]42OC(=O)C(C(=O)c2ccc(O)c(O)c2)=C3OC1(C)C
Activity (HEL [1]): Active
Activity (HEL [2]): Active
pIC50 (HeLa): < 4.70
Activity (HEL [3]): 34.6%
Activity (HEL [4]): 10.76%
viability at 10 µM (HEL [5]): 49.2%
Activity (HEL [6]): 21%
Activity (HEL [7]): 59.29%
Activity (HEL [8]): 15.9%
viability at 2.5 µM (HEL [9]): 86.6%
Activity (HEL [10]): Active
Activity (HEL [11]): 5.8%
Activity (HEL [12]): 0.6%
Activity (HEL [13]): 28.81%
Activity (HEL [14]): 2.4%
Activity (HEL [15]): 0.4%
Activity (HEL [16]): Active
pIC50 (MCF7): 4.87
pIC50 (HEL [17]): 5.32
Activity (HEL [18]): 6.4%
Activity (HEL [19]): 3.3%
Activity (HEL [20]): Active
viability at 2.5 µM (HEL [21]): 84.8%
Activity (HEL [22]): 32.5%
pIC50 (A549): < 4.70
Activity (HEL [23]): Dose-dependent effect
viability at 10 µM (HEL [24]): 61.6%
Activity (HEL [25]): 0.8%
Activity (HEL [26]): 10.6%
viability at 5 µM (HEL [27]): 80.9%
Activity (HEL [28]): Dose-dependent effect
Activity (HEL [29]): 2.3%
Activity (HEL [30]): Active
viability at 5 µM (HEL [31]): 72.6%
Activity (HEL [32]): 1.6%
pIC50 (K562): 5.11
Activity (HEL [33]): Active
Activity (HEL [34]): 15.3%
Activity (HEL [35]): 7.2%
Activity (HEL [36]): 0.4%
Activity (HEL [37]): 3%

Compound: CC(C)=CC[C@H]1C[C@]23C[C@@H](CC=C(C)C)C(C)(C)[C@H]4CCC(C)(C)O[C@]42OC(=O)C(C(=O)c2ccc(OC(=O)c4ccc(Br)cc4)c(OC(=O)c4ccc(Br)cc4)c2)=C3OC1(C)C
pIC50 (HeLa): < 4.70
pIC50 (MCF7): < 4.70
pIC50 (HEL [17]): < 4.70
pIC50 (A549): < 4.70
pIC50 (K562): < 4.70

Compound: C=CC(=O)Oc1cc(C(=O)C2=C3OC(C)(C)[C@@H](CC=C(C)C)C[C@@]34C[C@@H](CC=C(C)C)C(C)(C)[C@@](CC=C(C)C)(C2=O)C4=O)ccc1O
pIC50 (HeLa): 4.71
pIC50 (MCF7): < 4.70
pIC50 (HEL [17]): 5.33
pIC50 (A549): < 4.70
pIC50 (K562): 4.97

Compound: CC(C)=CC[C@H]1C[C@@]23C[C@@H](CC=C(C)C)C(C)(C)[C@@](CC=C(C)C)(C(=O)C(C(=O)c4ccc(OCCCCCN5CCOCC5)c(O)c4)=C2OC1(C)C)C3=O
pIC50 (HeLa): < 4.70
pIC50 (MCF7): 4.80
pIC50 (HEL [17]): < 4.70
pIC50 (A549): < 4.70
pIC50 (K562): < 4.70

Compound: C=C(C)[C@@H](CC=C(C)C)C[C@]12C[C@@H](CC=C(C)C)C(C)(C)[C@](CC=C(C)C)(C1=O)c1oc3cc(O)c(O)cc3c(=O)c1C2=O
pIC50 (HeLa): < 4.70
pIC50 (MCF7): < 4.70
pIC50 (HEL [17]): < 4.70
pIC50 (A549): < 4.70
pIC50 (K562): < 4.70

Stronger by pIC50 (HeLa), values ahead:

pIC50 (HeLa): 4.80
pIC50 (MCF7): < 4.70
pIC50 (A549): 4.97
pIC50 (K562): < 4.70
Compound: CC(C)=CC[C@H]1C[C@@]23C[C@@H](CC=C(C)C)C(C)(C)[C@@](CC=C(C)C)(C(=O)C(C(=O)c4ccc(OCc5ccccc5)c(O)c4)=C2OC1(C)C)C3=O
pIC50 (HEL [17]): < 4.70

pIC50 (HeLa): 4.83
pIC50 (MCF7): 4.94
pIC50 (A549): < 4.70
pIC50 (K562): < 4.70
Compound: C=CCOc1ccc(C(=O)C2=C3OC(C)(C)[C@@H](CC=C(C)C)C[C@@]34C[C@@H](CC=C(C)C)C(C)(C)[C@@](CC=C(C)C)(C2=O)C4=O)cc1O
pIC50 (HEL [17]): < 4.70

pIC50 (HeLa): 4.95
pIC50 (MCF7): 5.12
pIC50 (A549): 4.76
pIC50 (K562): < 4.70
Compound: CCN(CC)CCCCCOc1ccc(C(=O)C2=C3OC(C)(C)[C@@H](CC=C(C)C)C[C@@]34C[C@@H](CC=C(C)C)C(C)(C)[C@@](CC=C(C)C)(C2=O)C4=O)cc1OCCCCCN(CC)CC
pIC50 (HEL [17]): < 4.70

— ChEMBL document CHEMBL4382259, “Synthesis of novel guttiferone E and xanthochymol derivatives with cytotoxicities by inducing cell apoptosis and arresting the cell cycle phase” (Eur J Med Chem, 2019)
